How the values were obtained:
[1] = test system: corn; test: Test B pre/postemergence corn; assay type: in vivo, Zea mays
Summary of the method: (§1)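 Response is a visual 0-to-10 score relative to untreated plants, where 0 means no effect and 10 means complete control, taken twelve to sixteen days after application. Treatments went onto soil at planting and onto foliage of 1- to 4-leaf plants, using a surfactant-containing non-phytotoxic solvent.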

[2] = test system: rape; test: Test B pre/postemergence rape; assay type: in vivo, Brassica napus
Summary of the method: as §1

[3] = test system: sugar beet; test: Test B pre/postemergence sugar beet; assay type: in vivo, Beta vulgaris
Summary of the method: as §1

[4] = test system: duck salad; test: Test B flood test duck salad; assay type: in vivo, Heteranthera limosa
Summary of the method: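 Each value is a visual injury score relative to controls, with 10 meaning complete control and 0 no effect. Evaluation took place twelve to sixteen days after the 2-leaf-stage plants were treated and kept in the greenhouse.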

[5] = Postemergence, Rate 250 g/ha, scale 0 to 10
[6] = Postemergence, Rate 500 g/ha, scale of 0 to 10 where 0 is no effect and 10 is complete control
[7] = Preemergence, Rate 62 g/ha, scale 0 to 10 (0 no effect, 10 complete control)
[8] = Preemergence, Rate 125 g/ha, scale of 0 to 10 where 0 is no effect and 10 is complete control
[9] = Preemergence, Rate 250 g/ha, scale 0 to 10, 0 is no effect, 10 is complete control
[10] = Preemergence, Rate 500 g/ha, scale 0 to 10, 0 is no effect, 10 is complete control
[11] = Rate 62 g/ha, Postemergence, scale of 0 to 10 where 0 is no effect and 10 is complete control
[12] = Rate 125 g/ha, Postemergence, scale 0 to 10, 0 is no effect, 10 is complete control
[13] = Postemergence section (flood test species), Rate 500 g/ha, scale of 0 to 10 where 0 is no effect and 10 is complete control
[14] = Rate 62 g/ha, Postemergence (flood test species), scale of 0 to 10 where 0 is no effect and 10 is complete control
[15] = Rate 125 g/ha, Postemergence section (flood test species), scale 0 to 10, 0 is no effect, 10 is complete control
[16] = Postemergence, Rate 62 g/ha, scale 0 to 10, 0 is no effect, 10 is complete control
[17] = Postemergence, Rate 125 g/ha, scale of 0 to 10 where 0 is no effect and 10 is complete control
[18] = Preemergence, Rate 62 g/ha, scale of 0 to 10 where 0 is no effect and 10 is complete control
[19] = Preemergence, Rate 500 g/ha, scale of 0 to 10 where 0 is no effect and 10 is complete control
[20] = Rate 500 g/ha, Postemergence, scale 0 to 10, 0 is no effect, 10 is complete control
[21] = Postemergence, Rate 250 g/ha, scale 0 to 10, 0 is no effect, 10 is complete control
[22] = Postemergence, Rate 250 g/ha, scale 0 to 10, 0 no effect, 10 complete control
[23] = Preemergence, Rate 62 g/ha, scale 0 to 10, 0 is no effect, 10 is complete control
[24] = Preemergence, Rate 125 g/ha, scale 0 to 10 (0 no effect, 10 complete control)
[25] = Preemergence, Rate 250 g/ha, scale of 0 to 10 where 0 is no effect and 10 is complete control
[26] = Preemergence, Rate 500 g/ha, scale 0 (no effect) to 10 (complete control)
[27] = Rate 125 g/ha, Postemergence, scale 0 to 10, 0 no effect, 10 complete control
[28] = Rate 500 g/ha, Postemergence, 0 to 10 scale (0 no effect, 10 complete control)

CCN(C(=O)n1oc(=O)n(C2CCCCCC2)c1=O)C1CCCCC1 [Compound 429]
Corn plant response rating [1, 5]: 0
Corn plant response rating [1, 6]: 0
Plant response rating, Corn [1, 7]: 0
Plant response rating, Corn [1, 8]: 0
Corn plant response rating [1, 9]: 0
Corn plant response rating [1, 10]: 0
Corn plant response rating [1, 11]: 0
Corn plant response rating [1, 12]: 0
Rape plant response rating [2, 5]: 0
Rape plant response rating [2, 6]: 0
Plant response rating, Rape [2, 7]: 0
Plant response rating, Rape [2, 8]: 0
Rape plant response rating [2, 9]: 0
Rape plant response rating [2, 10]: 0
Rape plant response rating [2, 12]: 0
Sugarbeets plant response rating [3, 5]: 0
Sugarbeets plant response rating [3, 6]: 0
Plant response rating, Sugarbeets [3, 7]: 0
Plant response rating, Sugarbeets [3, 8]: 0
Sugarbeets plant response rating [3, 9]: 0
Sugarbeets plant response rating [3, 10]: 0
Sugarbeets plant response rating [3, 12]: 0
Ducksalad plant response rating ([4]; Postemergence block (flood test species), Rate 250 g/ha, scale 0 to 10): 6
Ducksalad plant response rating [4, 13]: 6
Ducksalad plant response rating [4, 14]: 0
Ducksalad plant response rating [4, 15]: 2

CC(C)N(C(=O)n1oc(=O)n(CCCC#N)c1=O)c1ccc(F)cc1F [Compound 675]
Plant response rating, Corn [1, 16]: 0
Corn plant response rating [1, 17]: 0
Corn plant response rating ([1]; Postemergence, Rate 250 g/ha, scale of 0 to 10, 0 is no effect, 10 is complete control): 0
Corn plant response rating [1, 18]: 0
Plant response rating, Corn [1, 8]: 3
Plant response rating, Corn ([1]; Preemergence, Rate 250 g/ha, scale 0 to 10 (0 no effect, 10 complete control)): 6
Plant response rating, Corn [1, 19]: 9
Corn plant response rating [1, 20]: 6
Plant response rating, Rape [2, 16]: 0
Rape plant response rating [2, 17]: 0
Rape plant response rating [2, 18]: 2
Plant response rating, Rape [2, 8]: 3
Plant response rating, Rape [2, 19]: 10
Rape plant response rating [2, 20]: 3
Plant response rating, Sugarbeets [3, 16]: 0
Sugarbeets plant response rating [3, 17]: 2
Sugarbeets plant response rating [3, 18]: 5
Plant response rating, Sugarbeets [3, 8]: 7
Plant response rating, Sugarbeets [3, 19]: 10
Sugarbeets plant response rating [3, 20]: 4
Plant response rating, Ducksalad (0 to 10 scale, 0 is no effect, 10 is complete control) ([4]; Rate 62 g/ha, flood test species, Pre-emergence, visual evaluation after twelve to sixteen days): 0
Ducksalad plant response rating (0 to 10 scale, 0 is no effect, 10 is complete control) ([4]; Rate 125 g/ha, under heading Pre-emergence, flood test species, visual evaluation after twelve to sixteen days): 0
Ducksalad plant response rating ([4]; Rate 250 g/ha, Pre-emergence (flood test species), scale 0 to 10, 0 is no effect, 10 is complete control): 0
Ducksalad plant response rating ([4]; Rate 500 g/ha, Pre-emergence section of Table B, 0 to 10 scale (0 no effect, 10 complete control)): 0

CC(C)N(C(=O)n1oc(=O)n(C(CF)CF)c1=O)c1ccccc1 [Compound 421]
Plant response rating, Corn [1, 21]: 3
Corn plant response rating [1, 6]: 7
Plant response rating, Corn [1, 7]: 4
Plant response rating, Corn [1, 8]: 5
Corn plant response rating [1, 9]: 8
Corn plant response rating [1, 10]: 8
Corn plant response rating [1, 11]: 0
Corn plant response rating [1, 12]: 0
Plant response rating, Rape [2, 21]: 3
Rape plant response rating [2, 6]: 8
Plant response rating, Rape [2, 7]: 8
Plant response rating, Rape [2, 8]: 10
Rape plant response rating [2, 9]: 10
Rape plant response rating [2, 10]: 10
Rape plant response rating [2, 12]: 0
Plant response rating, Sugarbeets [3, 21]: 3
Sugarbeets plant response rating [3, 6]: 6
Plant response rating, Sugarbeets [3, 7]: 8
Plant response rating, Sugarbeets [3, 8]: 10
Sugarbeets plant response rating [3, 9]: 10
Sugarbeets plant response rating [3, 10]: 10
Sugarbeets plant response rating [3, 12]: 0
Ducksalad plant response rating [4, 13]: 2
Ducksalad plant response rating [4, 14]: 0
Ducksalad plant response rating [4, 15]: 0
Plant response rating, Ducksalad ([4]; flood test species, listed under Postemergence, Rate 250 g/ha, scale 0 to 10, 0 is no effect, 10 is complete control): 2

CC(C)N(C(=O)n1oc(=O)n(-c2ccc(Cl)cc2C(F)(F)F)c1=O)c1ccc(F)cc1 [Compound 20]
Corn plant response rating [1, 16]: 0
Corn plant response rating [1, 22]: 0
Plant response rating, Corn [1, 23]: 0
Plant response rating, Corn [1, 24]: 0
Plant response rating, Corn [1, 25]: 0
Corn plant response rating [1, 26]: 0
Corn plant response rating [1, 27]: 0
Corn plant response rating [1, 28]: 0
Rape plant response rating [2, 16]: 0
Rape plant response rating [2, 22]: 0
Plant response rating, Rape [2, 23]: 0
Plant response rating, Rape [2, 24]: 0
Plant response rating, Rape [2, 25]: 0
Rape plant response rating [2, 26]: 0
Rape plant response rating [2, 27]: 0
Rape plant response rating [2, 28]: 0
Sugarbeets plant response rating [3, 16]: 0
Plant response rating, Sugarbeets [3, 23]: 0
Plant response rating, Sugarbeets [3, 24]: 0
Plant response rating, Sugarbeets [3, 25]: 2
Sugarbeets plant response rating [3, 26]: 7
Sugarbeets plant response rating [3, 27]: 0
Ducksalad plant response rating [4, 16]: 0
Ducksalad plant response rating ([4]; Rate 125 g/ha, Postemergence section (flood test species), scale 0 to 10, 0 no effect, 10 complete control): 0
Ducksalad plant response rating ([4]; Rate 500 g/ha, Postemergence section of Table B, 0 to 10 scale (0 no effect, 10 complete control)): 0
Ducksalad plant response rating ([4]; flood test, listed under Postemergence, Rate 250 g/ha, scale 0 to 10, 0 no effect, 10 complete control): 0

From patent US6737383B1, “Herbicidal oxadiazolidines” (priority 1999, dated 2004)
